Reference: patent publication US8476317B2, “N-alkylcarbonyl-amino acid ester compounds and their use for cough and pharyngitis” (priority 2011, dated 2013)
“And” between values parts separate entries of the source, which are not always exact repeats. Equal entries are not always repeated.

What was measured:
TRP-M8 = molecular target: T1, TRP-M8 (Homo sapiens, UniProt Q7Z2W7); assay: TRP-M8 receptor assay; format: cell-based; settings: for EC50: data from Prof. D. Bautista's laboratory
T1 construct: expressed in transfected cells
Description: Psychic events such as refreshment, soothing, cooling, irritation, itch, and pain cannot be verbalized by animals (animals cannot say “it feels cold”, “ouch”, or that “it itches”). […] Receptor assays, based on cells transfected with the genes for proteins associated with thermosensation (e.g., TRP-M8, TRP-A1, TRP-V1) may be used as a model of sensory processes and provide quantitative data. […] The in vitro assay gives no information on onset and offset of action, but yields information on comparative potency of the two enantiomers. Further evaluation of the pharmacological properties of the test substances were based on direct tests in human subjects.
Thus, the D-configuration of the α-carbon of Ala is an absolute requirement for therapeutic utility in cough. This separation of activity between the D- and L-enantiomers was also apparent in the TRP-M8 receptor assay (data from Prof. D. Bautista's laboratory at the University of California at Berkeley). […] Thus, in an equal mixture (racemic) of D-Ala and L-Ala enantiomers, it is likely that ˜97% of the anti-cough activity would be contributed by the D-enantiomer (of Formula 1).

pharyngeal surface = assay: Chili-pepper sauce cough challenge test; format: in vivo, human; design: key: If there is no attenuation of the challenge stimuli, the score is 0; if there is partial inhibition, the score is +; if there is complete attenuation of the cough signal, the score is ++; settings: challenge 45 to 50 min after ODT containing 2 mg of test substance
Description: A number of cough challenge methods have been devised for evoking the cough reflex (Morice et al. Briti. J. Clin. Pharmacol. 52: 365-375, 2001). Usually, citric acid or capsaicin is delivered via the inhalation route to volunteers and the number of coughs counted. […] The chili pepper sauce used here is called Yank Sing® Chili Pepper Sauce (YS Gourmet Productions, Inc., PO Box 26189, San Francisco, Calif. 94126) and is a well-known condiment for use with dim sum (Chinese tea lunch). The sensations associated with the chili pepper sauce are located in the back of the mouth and are clearly recognized and associated with a desire to clear the throat. […] To test for anti-cough activity the ODT with the test substance is first administered onto the dorsal surface of the tongue and 45 to 50 min afterwards the chili-pepper sauce test is administered. If there is no attenuation of the challenge stimuli, the score is 0, if there is partial inhibition, the score is +, and if there is complete attenuation of the cough signal, the score is ++. In the presence of an ODT that results in a ++ score, the irritative signals are completely absent, yet the salty taste used in the soy sauce of the condiment can still be easily tasted. The test substances in the ODT that produced a ++ score were then identified and further tested for effectiveness in the treatment of cough.

oral cavity / oropharynx = assay: Cooling in oral cavity after application on dorsal surface of tongue; format: in vivo, human; settings: dose of 1 to 2 mg, normal subjects
Method: The subject is instructed to close and hold the substance in the mouth for at least 10 seconds and not to swallow. The description of sensations is then recorded at 5 to 10 minute intervals.
The compounds of Formula 1 are white crystalline solids at room temperatures. These compounds were tested as the pure powder (>95% purity, by HPLC analysis), or mixed 1:1 with powdered or granulated sugar. The test substances were applied at 2 to 5 mg on the mid-point of the dorsal surface of the tongue using a metal spatula or a plastic applicator. After depositing the test substance on the tongue, the subject was instructed to keep the mouth closed and allow the fluids of the mouth to inter-mix with the test substance and to distribute it to the back of the mouth (oropharynx). The presence and duration of subjective sensations from the mouth was then recorded.

T1 sequence (Q7Z2W7 whole entry, species assumed): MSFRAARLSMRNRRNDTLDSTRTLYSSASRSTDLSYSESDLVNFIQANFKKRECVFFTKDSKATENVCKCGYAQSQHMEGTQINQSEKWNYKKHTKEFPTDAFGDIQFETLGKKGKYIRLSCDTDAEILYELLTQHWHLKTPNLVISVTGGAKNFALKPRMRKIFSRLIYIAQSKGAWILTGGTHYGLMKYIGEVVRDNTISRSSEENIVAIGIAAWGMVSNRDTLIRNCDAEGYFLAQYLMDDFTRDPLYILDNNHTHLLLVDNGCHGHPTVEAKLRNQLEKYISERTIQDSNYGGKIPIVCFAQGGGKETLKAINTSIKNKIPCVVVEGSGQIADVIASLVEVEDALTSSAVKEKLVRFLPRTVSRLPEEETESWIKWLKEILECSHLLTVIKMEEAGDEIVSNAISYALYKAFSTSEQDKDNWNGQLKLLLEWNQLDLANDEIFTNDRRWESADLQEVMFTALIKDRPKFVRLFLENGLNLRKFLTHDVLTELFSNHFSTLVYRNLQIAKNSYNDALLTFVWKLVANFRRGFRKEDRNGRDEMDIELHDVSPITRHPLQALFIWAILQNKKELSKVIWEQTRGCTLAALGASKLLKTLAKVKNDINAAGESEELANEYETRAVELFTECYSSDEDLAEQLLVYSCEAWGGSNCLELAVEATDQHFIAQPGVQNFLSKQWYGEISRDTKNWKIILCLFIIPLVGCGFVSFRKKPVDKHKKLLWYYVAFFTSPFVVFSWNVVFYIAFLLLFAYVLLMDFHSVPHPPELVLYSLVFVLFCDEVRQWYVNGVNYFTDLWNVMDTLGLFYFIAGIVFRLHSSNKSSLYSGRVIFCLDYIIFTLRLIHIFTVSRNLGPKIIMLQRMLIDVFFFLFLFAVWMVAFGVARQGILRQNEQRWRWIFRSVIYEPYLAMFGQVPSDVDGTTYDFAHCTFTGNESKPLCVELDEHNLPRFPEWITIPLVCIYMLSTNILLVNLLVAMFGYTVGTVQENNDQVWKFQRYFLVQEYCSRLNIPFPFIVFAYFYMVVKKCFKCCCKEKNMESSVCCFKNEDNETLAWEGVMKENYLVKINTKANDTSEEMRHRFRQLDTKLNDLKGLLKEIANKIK

EC50 (TRP-M8) | difference of EC50, D-Ala-OEt versus L-Ala-OEt (TRP-M8; TRP-M8 receptor assay) [fold] | Structure (SMILES) | Chili-Pepper Sauce Test (pharyngeal surface) | duration of cooling sensations on the tongue (oral cavity / oropharynx)
18000 nM |  | CCOC(=O)C(C)NC(=O)[C@@H]1C[C@H](C)CC[C@H]1C(C)C (stereo partly drawn) [L-Ala-OEt] | 0 | 
480 nM and 500 nM | 37 | CCOC(=O)[C@@H](C)NC(=O)[C@@H]1C[C@H](C)CC[C@H]1C(C)C [D-Ala-OEt, (R)-2-[((1R,2S,5R)-2-isopropyl-5-methyl-cyclohexanecarbonyl)-amino]-propionic acid ethyl ester] | ++ | about 30 minutes
 |  | COC(=O)[C@@H](C)NC(=O)[C@@H]1C[C@H](C)CC[C@H]1C(C)C [D-Ala-OMe, (R)-2-[((1R,2S,5R)-2-isopropyl-5-methyl-cyclohexanecarbonyl)-amino]-propionic acid methyl ester] | ++ | about 30 minutes
